Results taken from article PMC10959927, “Platinum iodido drugs show potential anti-tumor activity, affecting cancer cell metabolism and inducing ROS and senescence in gastrointestinal cancer cells” (Communications Biology, 2024).
Values joined by “and” are separate entries in the source; they are usually repeats but may differ in a detail not shown here. Equal entries are not always repeated. Where two headings read alike, the source gives them in different places.

How the values were obtained:
[1] = system: AGS cells; assay: Cell viability, crystal violet staining; conditions: for Cell Viability without NAC: AGS cells, Fig. S6A; for IC50: read-out: IC50 concentration (± SD) at 48 h, 48 h
Experimental: (§1) Cell viability was assessed using a crystal violet-based staining method. […] The cells (2 × 10^5) were seeded in 24-multiwell dishes in 0.5 mL of complete medium and incubated overnight. […] After 48 h, cells were fixed with 1% glutaraldehyde (20–30 min), washed with distilled water, and stained with 0.1% crystal violet. […] IC50 were calculated by using GraphPad Prism (version 8.0). Nonlinear regression was used to fit the data to the log (inhibitor) versus response (variable slope).

[2] = system: MKN45 cells; assay: Cell viability, crystal violet staining; conditions: for Cell Viability without NAC: MKN45 cells, Fig. S6A; for IC50: read-out: IC50 concentration (± SD) at 48 h, 48 h
Experimental: as §1

[3] = system: PANC1 cells; assay: Cell viability, crystal violet staining; conditions: for Cell Viability without NAC: PANC1 cells, Fig. S6A; for IC50: read-out: IC50 concentration (± SD) at 48 h, 48 h
Experimental: as §1

[4] = system: CC2509 fibroblasts; assay: Cell viability, crystal violet staining, non-tumoral cells; conditions: CC2509, 48 h
Experimental: as §1

[5] = system: HPDE cells; assay: as above; conditions: for percentage of viable cells: 48 h
Experimental: as §1

[6] = system: AGS cells; assay: SA-β-Gal activity, CellEvent Senescence Green flow cytometry;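 note: IC50 concentration of each compound relative to untreated control set as 1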; assay type: cell-based, human; conditions: Fig. 3A, replicate values
Experimental: (§2) SA-β-Gal activity was measured following two different approaches. (i) AGS, MKN45 and PANC1 cells (5 × 10^4) were seeded in 24-multiwell dishes and incubated overnight. […] For flow cytometry cell senescence detection, cells were tripsinized, fixed for 15 min with PFA 4% and stained with the CellEvent Senescense Green Flow Cytometry Assay Kit (C10840, Invitrogen) according to manufacturer’s instructions. CellEvent Senescense Green Probe was used at a 1:500 dilution and fluorescence was detected using the filter (Ex488nm/Em530/30) BL1 with a 4-laser Attune NxT Acoustic Cytometer (Thermo Fisher Scientific). […] After 3 h, the treatments were removed, new supplemented medium was added, and cells were incubated for an additional 24 h. Finally, SA-β-Gal staining was performed using the Senescence Cells Histochemical Staining Kit (CS0030-1KT) according to the manufacturer’s instructions.

[7] = system: MKN45 cells; assay: as above; assay type: cell-based, human; conditions: Fig. 3A, replicate values
Experimental: as §2

[8] = system: PANC1 cells; assay: as above; assay type: cell-based, human; conditions: Fig. 3A, replicate values
Experimental: as §2

[9] = system: AGS cells; assay: SA-β-Gal histochemical staining; assay type: cell-based, human; conditions: Fig. S4A
Experimental: as §2

[10] = system: AGS cells; assay: Western blotting (p-p53, p-JNK, p-p38, p-ERK, p-CHK1/2, Mcl1, BID, BAX); assay type: cell-based, human; conditions: for fold change p-ERK vs Tubulin / fold change p-JNK vs Tubulin / fold change p-p38 vs Tubulin / fold change p-p53 vs Tubulin: Fig. 4A, replicate values; for fold change BAX vs Tubulin / fold change BID full length vs Tubulin / fold change MCL1 vs Tubulin: Fig. S3B
Experimental: (§3) Total protein extracts were obtained by adding the lysis buffer: 25 mM HEPES pH 7.5, 0.3 M NaCl, 1.5 mM MgCl2, 0.2 mM EDTA, 0.5 mM DTT, 20 mM β-glicerophosphate, 0.1 mM Na3VO4, 0.1% triton X-100; in the presence of protease inhibitors. Twenty μg of protein per sample were loaded and resolved using 8%, 10% or 15% SDS-PAGE polyacrylamide gels, and then transferred onto PVDF membranes, followed by immunodetection using appropriate antibodies, purchased from Santa Cruz Technology: Mcl-1 (sc-819), Cell Signaling Technology: BIM, BID, BAX (#9942), p-p38 (1:2000, #4631), p-p53^ser15 (#9284), p-ERK1/2 (1:2000, #9106), p-CHK1^ser345 and p-CHK2^ser19 (#9931), Promega Corporation-Spain: p-JNK (#V7932), or Sigma-Aldrich: α-tubulin (1:10000, #TP026). Unless indicated, all antibodies were diluted 1:1000. Secondary antibodies conjugated with horseradish peroxidase were purchased from BioRad, and chemiluminescence detection was performed using ECL (Santa Cruz Biotechnology).

[11] = system: PANC1 cells; assay: as above; assay type: cell-based, human; conditions: for fold change BAX vs Tubulin / fold change MCL1 vs Tubulin: Fig. S3B; for fold change p-ERK vs Tubulin / fold change p-JNK vs Tubulin / fold change p-p38 vs Tubulin / fold change p-p53 vs Tubulin: PANC1, Fig. 4A, replicate values
Experimental: as §3

[12] = read-out: IC50 concentration (± SD) at 48 h in non-tumoral cell lines

SMILES: CC(C)[NH][Pt@SP1]([I])([I])[NH]C(C)C [I6, cis-[PtI2(isopropylamine)2]]
- IC25 concentration ([1]; AGS): 15 µM
- Cell Viability without NAC ([1]; dose 10 µM): 105.035
- Cell Viability without NAC ([1]; dose 50 µM): 68.1853
- Cell Viability without NAC ([1]; dose 75 µM): 30.4823
- IC50 ([1]; AGS, NAC (+) 0.5 mM): > 100 µM
- IC50 ([1]; AGS, NAC (-)): 50 µM and 51.5 µM
- Cell Viability without NAC ([2]; dose 7.5 µM): 99.1588 and 99.2583 and 108.83
- Cell Viability without NAC ([2]; dose 18.7 µM): 103.308 and 97.338 and 102.412
- Cell Viability without NAC ([2]; dose 37.4 µM): 85.458 and 67.9963 and 88.4728
- Cell Viability without NAC ([2]; dose 56.1 µM): 58.2655 and 42.2365 and 52.8031
- Cell Viability without NAC ([2]; dose 74.8 µM): 41.9977 and 31.3714 and 39.5202
- IC50 ([2]; MKN45, NAC (+) 0.5 mM): > 100 µM
- IC50 ([2]; MKN45, NAC (-)): 56.8 ± 1.53 µM
- Cell Viability without NAC ([3]; dose 10 µM): 77.9259 and 88.6605 and 70.8131
- Cell Viability without NAC ([3]; dose 25 µM): 47.4239 and 33.5177 and 35.073
- Cell Viability without NAC ([3]; dose 50 µM): 47.9877 and 31.0793 and 43.6951
- IC50 ([3]; PANC1, NAC (+) 0.5 mM): > 100 µM
- IC50 ([3]; PANC1, NAC (-)): 20 µM and 18.8 µM
- percentage of viable cells ([4]; dose 2.5 µM): 101.369% and 68.5642% and 72.6415%
- percentage of viable cells ([4]; dose 5 µM): 100.382% and 62.1377% and 89.6445%
- percentage of viable cells ([4]; dose 10 µM): 50.1592% and 62.7776% and 90.9953%
- percentage of viable cells ([4]; dose 25 µM): 52.2611% and 59.729% and 78.3886%
- percentage of viable cells ([4]; dose 50 µM): 30.3822% and 34.0139% and 46.6351%
- IC50 [4, 12]: 35 µM and 33.8 µM
- percentage of viable cells ([5]; dose 2.5 µM): 88.7955% and 72.4125% and 95.3401%
- percentage of viable cells ([5]; dose 5 µM): 78.4314% and 72.7203% and 72.6353%
- percentage of viable cells ([5]; dose 10 µM): 57.5163% and 55.8292% and 52.5038%
- percentage of viable cells ([5]; dose 25 µM): 22.9225% and 35.4367% and 19.9292%
- percentage of viable cells ([5]; dose 50 µM): 8.5901% and 14.6939% and 8.599%
- IC50 [5, 12]: 15 µM and 14.2 µM
- Fold change % Senescence [6]: 5.13 fold change and 5.74 fold change and 3.46 fold change
- Fold change % Senescence [7]: 5.26 fold change and 5.34 fold change and 6.2 fold change
- Fold change % Senescence [8]: 3.99 fold change and 3.23 fold change and 3.43 fold change
- Fold change % Senescence [9]: 49.02% and 67.7% and 53.18%
- activation of p53 (p-p53 western blot) ([10]; IC50, 1, 3, 6 and 24 h): did not activate p53
- phosphorylation of CHK1/2 (DDR pathway, western blot) ([10]; IC50, 1, 3, 6 or 24 h): did not activate
- fold change p-ERK vs Tubulin ([10]; Time 1 h): 2.604 fold change and 2.955 fold change and 1.91 fold change
- fold change p-JNK vs Tubulin ([10]; Time 1 h): 1.478 fold change and 1.305 fold change and 1.607 fold change
- fold change p-p38 vs Tubulin ([10]; Time 1 h): 1.462 fold change and 1.894 fold change and 2.196 fold change
- fold change p-p53 vs Tubulin ([10]; Time 1 h): 0.562 fold change and 0.6997 fold change and 1.25 fold change
- fold change p-ERK vs Tubulin ([10]; Time 3 h): 1.3326 fold change and 1.834 fold change and 1.749 fold change
- fold change p-JNK vs Tubulin ([10]; Time 3 h): 0.8249 fold change and 0.7387 fold change and 1.623 fold change
- fold change p-p38 vs Tubulin ([10]; Time 3 h): 1.1118 fold change and 2.258 fold change and 0.7258 fold change
- fold change p-p53 vs Tubulin ([10]; Time 3 h): 0.3925 fold change and 0.7056 fold change and 1.358 fold change
- fold change p-ERK vs Tubulin ([10]; Time 6 h): 1.495 fold change and 1.997 fold change and 1.556 fold change
- fold change p-JNK vs Tubulin ([10]; Time 6 h): 0.7672 fold change and 1.335 fold change and 1.232 fold change
- fold change p-p38 vs Tubulin ([10]; Time 6 h): 1.675 fold change and 3.507 fold change and 1.086 fold change
- fold change p-p53 vs Tubulin ([10]; Time 6 h): 0.5607 fold change and 0.7436 fold change and 1.621 fold change
- fold change p-ERK vs Tubulin ([10]; Time 24 h): 0.7805 fold change and 2.6246 fold change and 1.218 fold change
- fold change p-JNK vs Tubulin ([10]; Time 24 h): 0.8639 fold change and 0.8519 fold change and 1.138 fold change
- fold change p-p38 vs Tubulin ([10]; Time 24 h): 2.641 fold change and 0.9281 fold change and 1.316 fold change
- fold change p-p53 vs Tubulin ([10]; Time 24 h): 0.6954 fold change and 1.1071 fold change and 1.226 fold change
- fold change BAX vs Tubulin ([10]; time 1 h): 1.29 fold change and 0.734 fold change and 1.017 fold change
- fold change BID full length vs Tubulin ([10]; time 1 h): 0.722 fold change and 1.325 fold change and 0.67 fold change
- fold change MCL1 vs Tubulin ([10]; time 1 h): 0.493 fold change and 0.586 fold change and 0.597 fold change
- fold change BAX vs Tubulin ([10]; time 3 h): 0.759 fold change and 1.497 fold change and 1.286 fold change
- fold change BID full length vs Tubulin ([10]; time 3 h): 1.126 fold change and 1.525 fold change and 0.803 fold change
- fold change MCL1 vs Tubulin ([10]; time 3 h): 0.592 fold change and 1.105 fold change and 0.81 fold change
- fold change BAX vs Tubulin ([10]; time 6 h): 1.353 fold change and 1.942 fold change and 1.061 fold change
- fold change MCL1 vs Tubulin ([10]; time 6 h): 0.911 fold change and 1.666 fold change and 1.549 fold change
- fold change BID full length vs Tubulin ([10]; time 24 h): 1.406 fold change and 1.917 fold change and 1.97 fold change
- activation of p53 (p-p53 western blot) ([11]; PANC1, IC50, 1, 3, 6 and 24 h): did not activate p53
- phosphorylation of CHK1/2 (DDR pathway, western blot) ([11]; PANC1, IC50, 1, 3, 6 or 24 h): did not activate
- fold change BAX vs Tubulin ([11]; PANC1, time 1 h): 1.132 fold change and 1.289 fold change and 1.219 fold change
- fold change MCL1 vs Tubulin ([11]; PANC1, time 1 h): 0.6156 fold change and 0.9493 fold change and 1.031 fold change
- fold change BAX vs Tubulin ([11]; PANC1, time 3 h): 1.6811 fold change and 1.471 fold change and 1.573 fold change
- fold change BAX vs Tubulin ([11]; PANC1, time 6 h): 1.615 fold change and 2.78 fold change and 2.056 fold change
- fold change MCL1 vs Tubulin ([11]; PANC1, time 6 h): 1.135 fold change and 2.241 fold change and 1.84 fold change
- fold change BAX vs Tubulin ([11]; PANC1, time 24 h): 2.639 fold change and 1.942 fold change and 1.489 fold change
- fold change p-ERK vs Tubulin ([11]; Time 1 h): 1.209 fold change and 3.621 fold change and 2.27 fold change
- fold change p-JNK vs Tubulin ([11]; Time 1 h): 1.809 fold change and 1.288 fold change and 3.68 fold change
- fold change p-p38 vs Tubulin ([11]; Time 1 h): 2.603 fold change and 1.024 fold change and 1.89 fold change
- fold change p-p53 vs Tubulin ([11]; Time 1 h): 0.76 fold change and 1.24 fold change and 0.65 fold change
- fold change p-ERK vs Tubulin ([11]; Time 3 h): 0.5754 fold change and 1.698 fold change and 1.17 fold change
- fold change p-JNK vs Tubulin ([11]; Time 3 h): 0.5257 fold change and 0.2509 fold change and 3.356 fold change
- fold change p-p38 vs Tubulin ([11]; Time 3 h): 1.159 fold change and 1.033 fold change and 1.07 fold change
- fold change p-p53 vs Tubulin ([11]; Time 3 h): 0.78 fold change and 1.36 fold change and 1.16 fold change
- fold change p-ERK vs Tubulin ([11]; Time 6 h): 0.6008 fold change and 2.546 fold change and 1.66 fold change
- fold change p-JNK vs Tubulin ([11]; Time 6 h): 0.6321 fold change and 0.3554 fold change and 4.716 fold change
- fold change p-p38 vs Tubulin ([11]; Time 6 h): 0.976 fold change and 1.156 fold change and 1.0897 fold change
- fold change p-p53 vs Tubulin ([11]; Time 6 h): 1.01 fold change and 0.69 fold change and 0.99 fold change
- fold change p-ERK vs Tubulin ([11]; Time 24 h): 0.4409 fold change and 1.892 fold change and 1.09 fold change
- fold change p-JNK vs Tubulin ([11]; Time 24 h): 0.5968 fold change and 0.8335 fold change and 2.596 fold change
- fold change p-p38 vs Tubulin ([11]; Time 24 h): 1.91 fold change and 1.31 fold change and 1.357 fold change
- fold change p-p53 vs Tubulin ([11]; Time 24 h): 2.28 fold change and 1.99 fold change and 1.04 fold change
